Laboratory results from US10004762B2, “Dialysis formulation” (Gambro Lundia AB, priority 2013, dated 2018).
Like-named read-outs stand apart in the source and are kept apart here.

Legend:
[1] = Loss of trace elements during 24 h CRRT treatment (FIG. 5A-5B); settings: patients with CRRT (acute dialysis treatment)
[2] = Trace element concentrations in effluent of hemodialysis patients (ICP-MS); settings: effluent from HD patients at the end of dialysis session
Description: (§1) Trace element concentrations have been analyzed in effluent obtained from hemodialysis (HD) patients at the end of their dialysis session.
(§2) In the study participated 47 hemodialysis patients. […] All patients received dialysis 3-5 h, 3-4 times per week. Whole blood and plasma samples for trace element analysis were obtained pre- and post-midweek dialysis treatment in 6 ml trace element-free EDTA tubes (BD Vaccutainer®, Stockholm, Sweden). In addition effluent samples were taken post-treatment in 50 ml trace element-free tubes.
(§3) Analysis of all trace elements was performed by inductively coupled plasma-mass spectrometry (ICP-MS; Thermo X7, Thermo Elemental, Winsford, UK). For plasma and blood a sample volume of 250 μL was diluted 10 times with an alkaline solution according to Bárány et al. The effluent was analysed in acidic condition, i.e. concentrated nitric acid (HNO3) was added to the samples to a final concentration of 2%. Using the dilute solution or 2% HNO3 as a carrier/rinsing fluid, the samples were introduced in a segment-flow mode.

[3] = Trace element analysis in plasma and whole blood of HD patients and healthy controls (ICP-MS); settings: for P2 plasma sample post-dialysis ± SEM / P1 plasma sample pre-dialysis ± SEM / B2 whole blood sample post-dialysis ± SEM / B1 whole blood sample pre-dialysis ± SEM: all HD patients; for P control ± SEM / B control ± SEM: healthy controls; for B2 whole blood sample post-dialysis ± SEM / B1 whole blood sample pre-dialysis ± SEM / B control ± SEM: whole blood; for increase of concentration during dialysis: plasma and whole blood, HD patients (FIG. 2)
Description: (§4) In the study participated 47 hemodialysis patients. These 47 hemodialysis patients (34 female and 13 male), were divided into 30 non-diabetic and 17 with diabetes mellitus, with an average age of 67 (Table 1). All patients received dialysis 3-5 h, 3-4 times per week. Whole blood and plasma samples for trace element analysis were obtained pre- and post-midweek dialysis treatment in 6 ml trace element-free EDTA tubes (BD Vaccutainer®, Stockholm, Sweden). […] In addition, the same samples were taken at one occasion from a healthy control group. The control group included 51 persons (20 female and 31 male), with an average age of 22.
as §3

[4] = human, in vivo
Description: as §1, §2, §3

[5] = human, in vivo; remark: listed apart in the source
Description: as §4, §3

[6] = in vivo
[7] = in vivo; remark: listed apart in the source
[8] = Loss of trace elements during hemodialysis (HD) treatment (FIG. 5C-5E); settings: HD patients (chronic dialysis treatment), 4 hours of HD

| Effluent concentration ± SD [4] [µM] | B1 whole blood sample pre-dialysis ± SEM [5] [µg/L] | B2 whole blood sample post-dialysis ± SEM [5] [µg/L] | B control ± SEM [5] [µg/L] | P1 plasma sample pre-dialysis ± SEM [5] [µg/L] | P2 plasma sample post-dialysis ± SEM [5] [µg/L] | actual loss during 24 hours of CRRT [6] | Compound | actual loss during 24 hours of CRRT [1] | Effluent concentration ± SD [2] [µM] | P2 plasma sample post-dialysis ± SEM ([3]; plasma) [µg/L] | P1 plasma sample pre-dialysis ± SEM ([3]; plasma) [µg/L] | B2 whole blood sample post-dialysis ± SEM [3] [µg/L] | B1 whole blood sample pre-dialysis ± SEM [3] [µg/L] | P control ± SEM ([3]; plasma) [µg/L] | B control ± SEM [3] [µg/L] | actual loss / removal during HD treatment [7] | also measured |
| --- | --- | --- | --- | --- | --- | --- | --- | --- | --- | --- | --- | --- | --- | --- | --- | --- | --- |
|  |  |  |  |  |  |  | [Cr] [Chromium] | significant loss | 0.0043 ± 0.008 | 5.2 ± 0.6 | 3.3 ± 0.3 | 3.4 ± 0.4 | 2.1 ± 0.2 | 0.3 ± 0.02 | 0.3 ± 0.02 |  | P1 plasma sample pre-dialysis ± SEM ([3]; plasma, listed as Cr): 3.3 ± 0.3 µg/L; plasma concentration post-dialysis ([3]; diabetic HD patients): 2.5 ± 0.4 µg/L; P control ± SEM ([3]; plasma, listed as Cr): 0.3 ± 0.02 µg/L; plasma concentration post-dialysis ([3]; non-diabetic HD patients): 3.8 ± 0.4 µg/L; increase of concentration during dialysis [3]: up to 60% |
| 0.026 ± 0.015 | 855 ± 18 | 882 ± 17 | 861 ± 27 | 1113 ± 33 | 1178 ± 29 | significant loss | [Cu] [Copper] |  |  |  |  |  |  |  |  | removal of those trace elements in a majority of the patients | increase of concentration during dialysis [5]: ~4%; plasma concentration [5]: 1173 ± 56 µg/L |
|  |  |  |  |  |  |  | [Mn+2] [Manganese] | significant loss | 0.005 ± 0.005 | 3.4 ± 0.9 | 0.8 ± 0.03 | 19.3 ± 1.4 | 17 ± 1.3 | 0.7 ± 0.02 | 9.2 ± 0.4 |  | actual loss / removal during HD treatment [8]: no manganese removal at all but rather an uptake; B1 whole blood sample pre-dialysis ± SEM ([3]; listed as Mn): 17.0 ± 1.1 µg/L; blood concentration post-dialysis ([3]; diabetic HD patients): 20 ± 2.7 µg/L; blood concentration pre-dialysis ([3]; diabetic HD patients): 17 ± 2.1 µg/L; B control ± SEM ([3]; listed as Mn): 9.2 ± 0.4 µg/L; blood concentration post-dialysis ([3]; non-diabetic HD patients): 19 ± 1.4 µg/L; blood concentration pre-dialysis ([3]; non-diabetic HD patients): 17 ± 1.3 µg/L |
| 0.003 ± 0.002 | 2.0 ± 0.2 | 1.0 ± 0.1 | 0.6 ± 0.1 | 2.6 ± 0.2 | 1.3 ± 0.1 | significant loss | [Mo] [Molybdenum] |  |  |  |  |  |  |  |  |  | P control ± SEM [5]: 0.8 ± 0.1 µg/L; decrease of concentration during dialysis [5]: ~50%; plasma concentration post-dialysis [5]: 1.2 ± 0.2 µg/L; plasma concentration pre-dialysis [5]: 3.1 ± 0.4 µg/L; reduction of plasma concentration during dialysis [5]: 50% |
| 0.31 ± 0.17 | 972 ± 30 | 974 ± 30 | 1966 ± 51 | 187 ± 5 | 150 ± 4 | large loss | [Rb] [Rubidium] |  |  |  |  |  |  |  |  | significant removal of rubidium in a majority of the patients | P control ± SEM [5]: 271 ± 5 µg/L; decrease of plasma concentration during dialysis [5]: ~20% |
|  |  |  |  |  |  |  | Cobalt | significant loss | 0.0015 ± 0.002 | 0.6 ± 0.1 | 0.6 ± 0.03 | 0.5 ± 0.03 | 0.5 ± 0.02 | 0.4 ± 0.02 | 0.3 ± 0.01 |  | P1 plasma sample pre-dialysis ± SEM ([3]; plasma, listed as Co): 0.6 ± 0.03 µg/L; P control ± SEM ([3]; plasma, listed as Co): 0.4 ± 0.02 µg/L; increase in plasma concentration during dialysis ([3]; plasma, diabetic and non-diabetic HD patients): ~15% |
|  |  |  |  |  |  |  | Zinc | some subjects show a uptake of zinc (negative loss) while others show loss of zinc | 0.017 ± 0.01 | 685 ± 17 | 644 ± 13 | 5842 ± 131 | 5610 ± 138 | 719 ± 17 | 5189 ± 124 |  | actual loss / removal during HD treatment [8]: removal of those trace elements in a majority of the patients; B1 whole blood sample pre-dialysis ± SEM ([3]; listed as Zn): 5610 ± 138 µg/L; B control ± SEM ([3]; listed as Zn): 5189 ± 124 µg/L; increase of concentration during dialysis [3]: ~5% |

| Compound | Effluent concentration ± SD [4] [µM] | B1 whole blood sample pre-dialysis ± SEM [5] [µg/L] | B2 whole blood sample post-dialysis ± SEM [5] [µg/L] | B control ± SEM [5] [µg/L] | P1 plasma sample pre-dialysis ± SEM [5] [µg/L] | P2 plasma sample post-dialysis ± SEM [5] [µg/L] | actual loss during 24 hours of CRRT [6] | actual loss during 24 hours of CRRT [1] | Effluent concentration ± SD [2] [µM] | P2 plasma sample post-dialysis ± SEM ([3]; plasma) [µg/L] | P1 plasma sample pre-dialysis ± SEM ([3]; plasma) [µg/L] | B2 whole blood sample post-dialysis ± SEM [3] [µg/L] | B1 whole blood sample pre-dialysis ± SEM [3] [µg/L] | P control ± SEM ([3]; plasma) [µg/L] | B control ± SEM [3] [µg/L] | actual loss / removal during HD treatment [7] | also measured |
| --- | --- | --- | --- | --- | --- | --- | --- | --- | --- | --- | --- | --- | --- | --- | --- | --- | --- |
| [Se] [Selenium] |  |  |  |  |  |  | significant loss |  |  |  |  |  |  |  |  | significant removal of selenium in most patients | Effluent concentration ± SD ([4]; both): 0.01 ± 0.005 µM; B1 whole blood sample pre-dialysis ± SEM ([5]; both): 66 ± 2 µg/L; B2 whole blood sample post-dialysis ± SEM ([5]; both): 68 ± 2 µg/L; B control ± SEM ([5]; both): 102 ± 3 µg/L; P1 plasma sample pre-dialysis ± SEM ([5]; both): 53 ± 2 µg/L; P2 plasma sample post-dialysis ± SEM ([5]; both): 55 ± 2 µg/L; P control ± SEM ([5]; both): 81 ± 1.9 µg/L |
